Data set [1] deals with HCV 1b NS5B polymerase, Wild-Type NS5B (Hepatitis C virus genotype 1b, UniProt Q9WMX2).
Data set [2] in a line: Cytotoxicity assay (MTS), HepG2. In kind it is cell-based. Particulars: human, HepG2 cells. On the procedure:
(§1) 50 μl of 2× drug dilutions were added per well in a 96 well plate. Final concentrations of drug ranged from 1 to 100 μM. A “no drug” (media only) control was used to determine the minimum absorbance values and a “cells+media only” control was used for maximum absorbance value. A solvent control was also used. Cells were then added (PBM: 5×10^4 cells/well; CEM: 2.5×10^3 cells/well; Vero, HepG2, Huh-7, and Clone A: 5×10^3 cells/well) and incubated at 37° C. in a humidified 5% CO2 atmosphere for 3-5 days (PBM: 5 days; CEM: 3 days, all others: 4 days). After incubation, 20 μl of MTS dye was added from Cell Titer Aqueous One Solution Cell Proliferation Assay to each well and the plate was re-incubated for 2-4 hours. The absorbance (490 nm) was then read on an ELISA plate reader using the media only/no cell wells as blanks. Percent inhibition was found and used to calculate the CC50.

Data set [3] has as its system BVDV. Description: (BVDV) yield reduction assay. Conditions: for EC90: Bovine viral diarrhea virus isolates and strains. The data set is classed as cell-based, bovine viral diarrhea virus. On the procedure: Madin-Darby Bovine Kidney (MDBK) cells were grown in Dulbecco's modified eagle medium supplemented with 10% horse serum and 100 μg/ml penicillin-streptomycin. Cells were seeded in a 96-well plate at 5×10^3 cells/well and incubated for 72h at 37° C. in a humidified 5% CO2 atmosphere. Cells were infected with either cytopathic (NADL strain) or noncytopathic (SD-1 strain) BVDV at a virus dilution of 10-2 and incubated for 45 min. Cell monolayers were washed three times with medium. Fresh medium-containing test compounds in dose response concentrations or ribavirin, as a positive control, were added to cultures and medium containing no drug was added to the no-drug controls. After 72h incubation, supernatant was collected and viral RNA was extracted using the QIAmp Viral RNA Mini Kit (Qiagen, CA). Viral load was determined by Q-RT-PCR using primers specific for either NADL or SD-1 (1).

Data set [4] can be described thus: Cytotoxicity assay (MTS), CloneA. Conditions: human, Clone A cells. The data set is classed as cell-based. The procedure:
as §1

The test system of data set [5] is RSV. The experiment in a line: Antiviral activity, RSV. In kind it is cell-based. Particulars: human respiratory syncytial virus.
The nature of data set [6]: Cytotoxicity assay (MTS), Huh7. The data set is classed as cell-based. Conditions: human, Huh7 cells. The procedure:
as §1

Data set [7] has as its system Human bone marrow cells, BFU-E. Description: Bone marrow toxicity assay, BFU-E. The data set is classed as cell-based. The procedure:
(§2) The culture assays for CFU-GM and BFU-E are performed using a bilayer soft agar or methylcellulose method. Drugs are diluted in tissue culture medium and filtered. After 14 to 18 days at 37° C. in a humidified atmosphere of 5% CO2 in air, colonies of greater than 50 cells are counted using an inverted microscope. The results are presented as the percent inhibition of colony formation in the presence of drug compared to solvent control cultures.

In data set [8] the test system is replicon HCV RNA. Description: HCV replicon assay (clone not specified). Conditions: Hepatitis C virus, read-out: EC90 values, range for the replicon clones, range over replicon clones of Table 1. In general terms: A replicon is a self-replicating genome or part of one, used to study replication in cells.
In data set [9] the test system is HBV. Description: Antiviral activity, HBV. In kind it is cell-based. Conditions: Hepatitis B virus; HBV.
Data set [10] has as its system Human bone marrow cells, CFU-GM. The experiment in a line: Bone marrow toxicity assay, CFU-GM. In kind it is cell-based. The procedure: as §2
The subject of data set [11] is HepG2 cells. The experiment in a line: Mitochondria toxicity assay. The data set is classed as cell-based. Conditions: 7 days. On the procedure: Fifty microliters of 2× drug dilutions were added per well in a 96 well plate. […] Ribosomal DNA levels were used to determine specific toxicity to mitochondria or generally cytotoxicity. HepG2 cells (5,000 cells/well at 50 μl) were added to the plate. The plate was incubated at 37° C. in a humidified 5% CO2 atmosphere for 7 days. After incubation, the supernatant was removed and stored for lactic acid quantification, and total DNA was extracted from cells as described in the RNeasy 96 handbook (February 1999), pages 22-23. No DNA digestions were performed, therefore total RNA and DNA were extracted. The extracted DNA was amplified and the change in mitochondrial DNA and ribosomal DNA for each sample was determined. The fold difference in mitochondrial DNA normalized for ribosomal DNA relative to control was calculated. Lactic acid quantification was performed by the D-Lactic Acid/L-Lactic acid test kit (Boehringer Mannheim/R-Biopharm/Roche). The total amount of lactic acid produced for each sample was found as well as the fold change in lactic acid production (% of lactic acid/% of rDNA) as described in the manufacturers instructions.

The nature of data set [12]: Cytotoxicity assay (MTS), MDBK. The data set is classed as cell-based. Conditions: bovine, MDBK cells.
The nature of data set [13]: Cytotoxicity assay (MTS), all cell lines tested. In kind it is cell-based. Conditions: human, bovine, African green monkey, Clone A, Huh7, HepG2, MDBK, PBM, CEM, Vero and MRC-5 cells; summary in text over all cell lines. On the procedure: as §1
In contrast is the relative toxicity of 2′-C-methyladenosine.

Data set [14] concerns serum amino transferase levels. Particulars: Gary L. Davis, 2000; cited from earlier work.
Data set [15] relates to HCV replicon system. Particulars: Stuyver et al. 2003; cited from earlier work.

Each structure is given as a SMILES string. Read-outs that look alike come from different tables or passages of the source. A value given as a limit tells only on which side of the number the result lay.

One may read the IC50 as the concentration needed to halve the response being measured. As usually defined, the CC50 is the concentration at which the toxic effect on the cells reaches its halfway point. Read a high CC50 as lower toxicity to the cells. Broadly, the EC90 is the concentration at which the effect reaches the 90% level.

Chain of HCV 1b NS5B polymerase, Wild-Type NS5B (Q9WMX2 2420-3010): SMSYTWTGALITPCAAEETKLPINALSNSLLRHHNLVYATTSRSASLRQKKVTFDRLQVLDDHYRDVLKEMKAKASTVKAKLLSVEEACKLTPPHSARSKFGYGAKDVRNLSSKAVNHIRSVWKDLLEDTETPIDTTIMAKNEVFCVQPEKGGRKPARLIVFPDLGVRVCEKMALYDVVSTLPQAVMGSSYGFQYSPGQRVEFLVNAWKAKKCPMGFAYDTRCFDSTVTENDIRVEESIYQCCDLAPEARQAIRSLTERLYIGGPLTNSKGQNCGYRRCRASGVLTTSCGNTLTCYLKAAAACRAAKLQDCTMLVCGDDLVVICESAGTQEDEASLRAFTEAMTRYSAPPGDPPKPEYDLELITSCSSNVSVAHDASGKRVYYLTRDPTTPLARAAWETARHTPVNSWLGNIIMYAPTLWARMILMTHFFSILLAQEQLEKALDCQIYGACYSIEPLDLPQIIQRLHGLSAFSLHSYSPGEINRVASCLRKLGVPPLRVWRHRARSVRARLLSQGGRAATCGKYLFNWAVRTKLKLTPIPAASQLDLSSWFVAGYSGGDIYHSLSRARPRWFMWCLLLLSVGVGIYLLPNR

`C[C@@]1(F)[C@H](O)[C@@H](COP(=O)(O)OP(=O)(O)OP(=O)(O)O)O[C@H]1n1ccc(N)nc1=O`: the IC50 in [1] (IC50, Wild-Type NS5B, batch 1) was 1.7 ± 0.4 µM; in data set [1] (IC50, Wild-Type NS5B, batch 2 and 3) it was 7.7 ± 1.2 µM; in [1] (inhibitory concentration 50%, range, NS5B polymerase assay), 1.7 to 7.7 µM.
In the case of `C[C@@]1(O)[C@H](O)[C@@H](CO)O[C@H]1n1cnc2c(N)ncnc21` [2′-C-methyladenosine], the cytotoxic concentration (CC50) at 4 days in data set [2] stood at 58 µM; in [4] it was 37 µM; in data set [6], 30 µM. Moreover, the “activity on HCV surrogate model BVDV (in words)” value in data set [3] is given as “greater activity”. The figures for the EC90 in [3] (BVDVcp), in [3] (BVDVncp) and in data set [5] were 1.5 µM, 1.2 µM and greater than 100 µM, respectively.
On to `C[C@@]1(O)[C@H](O)[C@@H](CO)O[C@H]1n1ccc(N)nc1=O` [2′-C-methylcytidine], for which the CC50 at 4 days in data set [2], in data set [4], in [6] and in data set [12] was greater than 100 µM throughout. Also, the IC50 is 20.1 µM in [7] (Bone marrow cell); 13.2 µM in data set [10] (CFU-GM); greater than 25 µM in [11] (Homo sapiens, 168 h, read-out: mtDNA Synthesis (IC50)). For the same compound, the “activity on HCV surrogate model BVDV (in words)” value in data set [3] is given as “greater activity”. Moreover, the 90% effect concentration (EC90) was 2 µM in [3] (BVDVcp); 0.5 µM in data set [3] (BVDVncp); greater than 100 µM in data set [5]; 6.6 to 37.4 µM in data set [8]; greater than 10 µM in data set [9]. The “Lactic Acid Increase” value in data set [11] is “No effect ≥ 33 μM”. For the same compound, the CC50 in data set [13] lay within 75 to 100 µM.
Regarding `Cc1cn([C@H]2C[C@H](N=[N+]=[N-])[C@@H](CO)O2)c(=O)[nH]c1=O` [AZT], the IC50 came out at 0.08 µM in data set [7] and 0.95 µM in data set [10].
`NC(=O)c1ncn([C@@H]2O[C@H](CO)[C@@H](O)[C@H]2O)n1` [Ribavirin, 1-β-D-ribofuranosyl-1-1,2,4-triazole-3-carboxamide]: the “patients with serum amino transferase levels reduced to normal” value in data set [14] is listed as 40%. In data set [15], the “specific anti-HCV activity in the HCV replicon system” value was “does not have specific anti-HCV activity”.

Values taken from patent publication US10287311B2, “Modified fluorinated nucleoside analogues” (priority 2003, dated 2019).
